From patent US9688624B2, “DP2 antagonist and uses thereof” (Brickell Biotech, Inc., priority 2010, dated 2017) come the findings set out here.

SMILES strings stand for the structures.

The target in the test is recombinant human CRTH2 receptor (Homo sapiens (Human), UniProt Q9Y5Y4). Put plainly: In vitro membrane GTPγS binding assay. It counts as biochemical. The settings on record: average; 80 nM PGD2, 0.2% human serum albumin. The procedure: Example 16: In Vitro GTPγS Binding Assay
The ability of Compound 1 to inhibit binding of GTP to DP2 is assessed via a membrane GTPγS assay. CHO cells stably expressing the recombinant human CRTH2 receptor are resuspended in 10 mM Hepes, 7.4 containing 1 mM DTT, lysed and centrifuged at 75,000×g to pellet the membranes. The membranes are resuspended in 10 mM Hepes, 7.4 containing 1 mM DTT and 10% glycerol. Membranes (˜12.5 μg per well) are incubated in 96-well plates with 0.05 nM [^35S]-GTPγS, 80 nM PGD2, 5 μM GDP, and Compound 1 in Assay Buffer (50 mM Hepes, pH 7.4, 100 mM NaCl, 5 mM MgCl2 and 0.2% human serum albumin) for 60 minutes at 30° C. The reactions are terminated by rapid filtration through Whatman GF/B glass fibre filter plates. The filter plates are washed 3 times with 1 ml cold Assay Buffer and dried. Scintillant is then added to the plates and the radioactivity retained on the filters is determined on a Packard TopCount (Perkin Elmer). Specific binding is determined as total radioactive binding minus non-specific binding in the […] of the ligand (80 nM PGD2). IC50s were determined using Graphpad prism analysis of drug titration curves.
Background: GTPγS resists hydrolysis and so accumulates on activated G proteins.

recombinant human CRTH2 receptor, sequence (Q9Y5Y4 whole entry): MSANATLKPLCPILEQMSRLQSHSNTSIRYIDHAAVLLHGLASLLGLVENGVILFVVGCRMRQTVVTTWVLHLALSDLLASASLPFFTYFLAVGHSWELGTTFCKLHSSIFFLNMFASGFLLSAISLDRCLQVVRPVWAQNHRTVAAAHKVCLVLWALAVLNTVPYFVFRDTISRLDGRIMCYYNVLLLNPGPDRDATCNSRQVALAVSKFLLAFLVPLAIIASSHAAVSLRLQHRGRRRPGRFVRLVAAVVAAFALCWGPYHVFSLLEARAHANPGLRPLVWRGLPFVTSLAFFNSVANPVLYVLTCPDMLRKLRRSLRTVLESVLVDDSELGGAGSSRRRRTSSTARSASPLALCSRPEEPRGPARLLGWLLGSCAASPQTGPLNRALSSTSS

What is called IC50 is the point on the concentration scale where inhibition reaches its midpoint. In the case of `COc1ccc(CC(=O)O)cc1Oc1ccc(NC(=O)C(C)(C)C)cc1CSC(C)(C)C` [Compound 1, 2-(3-(2-((tert-butylthio)methyl)-4-(2,2-dimethyl-propionylamino)phenoxy)-4-methoxyphenyl)acetic acid], the IC50 stood at 2.8 nM.
